# Experimental data as given in patent US8309558B2, “Compounds for the treatment of hepatitis C” (Bristol-Myers Squibb Company, priority 2008, dated 2012).
# Test system: HCV replicon cells
# Assay: HCV replicon FRET / luciferase assay (96-well plates)
# Format: cell-based
# Conditions: Hepatitis C virus, 24 h, Table 1d (class symbols); HCV replicon; read-out: EC50
# From the text: FRET Assay Preparation. To perform the HCV FRET screening assay, 96-well cell culture plates were used. The FRET peptide (Anaspec, Inc.) (Taliani et al., Anal. Biochem. 1996, 240, 60-67) contains a fluorescence donor, EDANS, near one end of the peptide and an acceptor, DABCYL, near the other end. The fluorescence of the peptide is quenched by […] resonance energy transfer (RET) between the donor and the acceptor, but as the NS3 protease cleaves the peptide the products are released from RET quenching and the fluorescence of the donor becomes apparent. The assay reagent was made as follows: 5× cell Luciferase cell culture lysis reagent from Promega (#E153A) diluted to 1× with dH2O, NaCl added to 150 mM final, the FRET peptide diluted to 20 μM final from a 2 mM stock.
# To prepare plates, HCV replicon cells, with or without a Renilla luciferase reporter gene, were trypsinized and placed into each well of a 96-well plate with titrated test compounds added in columns 3 through 12; columns 1 and 2 contained a control compound (HCV protease inhibitor), and the bottom row contained cells without compound. The plates were then placed in a CO2 incubator at 37° C.
# Assays. Subsequent to addition of the test compounds described above (FRET Assay Preparation), at various times the plate was removed and Alamar blue solution (Trek Diagnostics, #00-100) was added per well as a measure of cellular toxicity. After reading in a Cytoflour 4000 instrument (PE Biosystems), plates were rinsed with PBS and then used for FRET assay by the addition of 30 ul of the FRET peptide assay reagent described above (FRET Assay Preparation) per well. The plate was then placed into the Cytoflour 4000 instrument which had been set to 340 excite/490 emission, automatic mode for 20 cycles and the plate read in a kinetic mode. Typically, the signal to noise using an endpoint analysis after the reads was at least three-fold. Alternatively, after Alamar blue reading, plates were rinsed with PBS, 50 ul of DMEM (high glucose) without phenol red was added and plates were then used for luciferase assay using the Promega Dual-Glo Luciferase Assay System.
# Compound analysis was determined by quantification of the relative HCV replicon inhibition and the relative cytotoxicity values. To calculate cytoxicity values, the average Alamar Blue fluorescence signals from the control wells were set as 100% non-toxic. The individual signals in each of the compound test wells were then divided by the average control signal and multiplied by 100% to determine […]. To calculate the HCV replicon inhibition values, an average background value was obtained from the two wells containing the highest amount of HCV protease inhibitor at the end of the assay period. These numbers were similar to those obtained from naïve Huh-7 cells.
# The background numbers were then subtracted from the average signal obtained from the control wells and this number was used as 100% activity. The individual signals in each of the compound test wells were then divided by the averaged control values after background subtraction and multiplied by 100% to determine percent activity. EC50 values for a protease inhibitor titration were calculated as the concentration which caused a 50% reduction in FRET or luciferase activity. The two numbers generated for the compound plate, percent cytoxicity and percent activity were used to determine compounds of interest for further analysis.
row,Structure (SMILES),EC50 [nM]
1,CNC(=O)c1c(-c2ccc(F)cc2)oc2ccc(-c3cc(C(=O)NC4(c5ccccn5)CC4)c(OC4CCCCC4)cc3C)cc12,1 to 250
2,CNC(=O)c1c(-c2ccc(F)cc2)oc2ccc(-c3cc(C(=O)NC4(c5ccccn5)CC4)c(OCC(=O)OC)cc3C)cc12 [drawing 642],250 to 1000
3,CNC(=O)c1c(-c2ccc(F)cc2)oc2ccc(-c3cc(C(=O)NC(C)(C)C)c(OC)cc3OCC(N)=O)cc12,1 to 250
4,CNC(=O)c1c(-c2ccc(F)cc2)oc2ccc(-c3cc(C(=O)NC4(c5ocnc5C)CC4)ccc3C)cc12,1 to 250
5,CNC(=O)c1c(-c2ccc(F)cc2)oc2ccc(-c3cc(C(=O)NC4(c5cnccn5)CC4)ccc3C)cc12,1 to 250
6,CNC(=O)c1c(-c2ccc(F)cc2)oc2ccc(-c3cc(C(=O)NC4(c5ccccn5)CC4)c(OCc4ccc(Cl)cc4)cc3C)cc12,1 to 250
7,CNC(=O)c1c(-c2ccc(F)cc2)oc2ccc(-c3cc(C(=O)NC4(c5ccncn5)CC4)ccc3C)c(F)c12,1 to 250
8,CNC(=O)c1c(-c2ccc(F)cc2)oc2ccc(-c3cc(C(=O)NC4(c5nc(C)cc(C)n5)CC4)c(OC)cc3C)c(F)c12,1 to 250
9,CNC(=O)c1c(-c2ccc(F)cc2)oc2ccc(-c3cc(C(=O)NC4(c5ccccn5)CC4)c(OCc4ccccn4)cc3C)cc12,1 to 250
10,CNC(=O)c1c(-c2ccc(F)cc2)oc2ccc(-c3cc(C(=O)NC4(c5ncc(F)cn5)CC4)c(OC)cc3C)c(F)c12 [drawing 689],1 to 250
11,CNC(=O)c1c(-c2ccc(F)cc2)oc2ccc(-c3cc(C(=O)NC4(c5ccccn5)CC4)c(OCc4cccnc4)cc3C)cc12,1 to 250
12,CNC(=O)c1c(-c2ccc(F)cc2)oc2ccc(-c3cc(C(=O)NC4(c5cncnc5)CC4)c(OC)cc3C)cc12,1 to 250
13,CNC(=O)c1c(-c2ccc(F)cc2)oc2ccc(-c3cc(C(=O)NC4(c5ncoc5C)CC4)ccc3C)cc12,1 to 250
14,CNC(=O)c1c(-c2ccc(F)cc2)oc2ccc(-c3cc(C(=O)NC4(c5ccccn5)CC4)c(OCc4cccc(Cl)c4)cc3C)cc12,1 to 250
15,CNC(=O)c1c(-c2ccc(F)cc2)oc2ccc(-c3cc(C(=O)NC4(c5ncc(C)cn5)CC4)c(OC)cc3C)cc12,1 to 250
16,CNC(=O)c1c(-c2ccc(F)cc2)oc2ccc(-c3cc(C(=O)NC4(c5ccncn5)CC4)ccc3C)cc12 [drawing 684],1 to 250
17,CNC(=O)c1c(-c2ccc(F)cc2)oc2ccc(-c3cc(C(=O)NC4(c5ccccn5)CC4)c(OCC4CCOCC4)cc3C)cc12,1 to 250
18,CNC(=O)c1c(-c2ccc(F)cc2)oc2ccc(-c3cc(C(=O)NC4(c5ccccn5)CC4)c(OC4CCOCC4)cc3C)cc12,1 to 250
19,CNC(=O)c1c(-c2ccc(F)cc2)oc2ccc(-c3cc(C(=O)NC4(c5ncc(F)cn5)CC4)ccc3C)cc12,1 to 250
20,CNC(=O)c1c(-c2ccc(F)cc2)oc2ccc(-c3cc(C(=O)NC4(c5ccccn5)CC4)c(OCCn4ccnc4)cc3C)cc12,1 to 250
21,CNC(=O)c1c(-c2ccc(F)cc2)oc2ccc(-c3cc(C(=O)NC4(c5ccnnc5)CC4)ccc3C)cc12,1 to 250
22,CNC(=O)c1c(-c2ccc(F)cc2)oc2ccc(-c3cc(C(=O)NC4(c5cccnn5)CC4)c(OC)cc3C)cc12,1 to 250
23,CNC(=O)c1c(-c2ccc(F)cc2)oc2ccc(-c3cc(C(=O)NC4(c5ncoc5C)CC4)c(OC)cc3C)cc12 [drawing 637],1 to 250
24,CNC(=O)c1c(-c2ccc(F)cc2)oc2ccc(-c3cc(C(=O)NC(C)(C)C)ccc3OC)c(F)c12,1 to 250
25,CNC(=O)c1c(-c2ccc(F)cc2)oc2ccc(-c3cc(C(=O)NC4(c5cnccn5)CC4)ccc3C)c(F)c12,1 to 250
26,CNC(=O)c1c(-c2ccc(F)cc2)oc2ccc(-c3cc(C(=O)NC4(c5ccnnc5)CC4)ccc3C)c(F)c12,1 to 250
27,CNC(=O)c1c(-c2ccc(F)cc2)oc2ccc(-c3cc(C(=O)NC4(c5ncc(F)cn5)CC4)ccc3C)c(F)c12,1 to 250
28,CNC(=O)c1c(-c2ccc(F)cc2)oc2ccc(-c3cc(C(=O)NC4(c5ccccn5)CC4)c(OCc4ccccc4)cc3C)cc12,1 to 250
29,CNC(=O)c1c(-c2ccc(F)cc2)oc2ccc(-c3cc(C(=O)NC4(c5ccccn5)CC4)c(OCCC4CC4)cc3C)cc12,1 to 250
30,CNC(=O)c1c(-c2ccc(F)cc2)oc2ccc(-c3cc(C(=O)NC4(c5ncc(C)cn5)CC4)ccc3C)c(F)c12,1 to 250

# Same assay, conditions: Hepatitis C virus, 24 h, second table titled Table 1d (numbers); HCV replicon; read-out: EC50
row,Structure (SMILES),EC50 [nM]
1,CNC(=O)c1c(-c2ccc(F)cc2)oc2ccc(-c3cc(C(=O)NC4(c5ncoc5C)CC4)c(OC)cc3C)cc12 [drawing 709],2
2,CNC(=O)c1c(-c2ccc(F)cc2)oc2ccc(-c3cc(C(=O)NC4(c5ccccn5)CC4)c(OCC(=O)OC)cc3C)cc12 [drawing 710],210

# Same assay, conditions: Hepatitis C virus, Table 1a; HCV replicon; read-out: EC50
row,Structure (SMILES),EC50 [nM]
1,CNC(=O)c1c(-c2ccc(F)cc2)oc2ccc(OCC(=O)NCc3nc4ccccc4s3)cc12,1000 to 10000
2,CNC(=O)c1c(-c2ccc(F)cc2)oc2ccc(OCC(=O)NCc3ccco3)cc12,1000 to 10000

# Same assay, conditions: Hepatitis C virus, Table 1b; HCV replicon; read-out: EC50
row,Structure (SMILES),EC50 [nM]
1,CNC(=O)c1c(-c2ccc(F)cc2)oc2ccc(-c3cc(C(=O)NC4(c5nc(C)no5)CC4)ccc3C)cc12 [drawing 478],< 250
2,CNC(=O)c1c(-c2ccc(F)cc2)oc2ccc(-c3cc(C(=O)NC4(c5ncc(C)s5)CC4)c(OC)cc3C)cc12,< 250
3,CNC(=O)c1c(-c2ccc(F)cc2)oc2ccc(-c3cc(C(=O)NC4(c5noc(C)n5)CC4)c(OC)cc3Cl)cc12,< 250
4,CNC(=O)c1c(-c2ccc(F)cc2)oc2ccc(-c3cc(C(=O)O)ccc3OC(F)(F)F)cc12,> 10000
5,CNC(=O)c1c(-c2ccc(F)cc2)oc2ccc(-c3ccc(-c4ccccc4CO)c(C(=O)NCC(C)C)c3)cc12,< 250
6,CNC(=O)c1c(-c2ccc(F)cc2)oc2cc(N(CCO)S(C)(=O)=O)c(-c3cccc(C(=O)NC(C)(C)c4ccnc(C)c4)c3)cc12,< 250
7,CNC(=O)c1c(-c2ccc(F)cc2)oc2ccc(-c3cccc(C(=O)NC(C)(C)c4ccccn4)c3)cc12,< 250
8,CNC(=O)c1c(-c2ccc(F)cc2)oc2cc(NS(C)(=O)=O)c(/C=C/C(=O)OC(C)(C)C)cc12,1000 to 10000
9,CNC(=O)c1c(-c2ccc(F)cc2)oc2ccc(-c3cc(C(=O)NC4(c5ccccn5)CC4)ccc3C3CC3)cc12,> 10000
10,CNC(=O)c1c(-c2ccc(F)cc2)oc2ccc(-c3ccc(-c4cccnc4)c(C(=O)NCC(C)C)c3)cc12,< 250
11,CCOc1cccc(-c2ccc(-c3ccc4oc(-c5ccc(F)cc5)c(C(=O)NC)c4c3)cc2C(=O)NCC(C)C)c1,< 250
12,CCOc1ccc(C(=O)NCC(C)C)cc1-c1ccc2oc(-c3ccc(F)cc3)c(C(=O)NC)c2c1,< 250
13,CNC(=O)c1c(-c2ccc(F)cc2)oc2cc(N(CCO)S(C)(=O)=O)c(-c3cccc(C(=O)NC(C)(C)c4ccncc4)c3)cc12,< 250
